Article PMC8879107, “A3 Adenosine Receptor Antagonists with Nucleoside Structures and Their Anticancer Activity” (Pharmaceuticals, 2022)
Where two headings read alike, the source gives them in different places.

Columns and labels:
[1] = test system: human prostate (PC3), colon (Caco-2) and hepatocyte (Hep G2) carcinomas; design: method as in PMID 29763615; settings: all three tumor cell lines PC3, Caco-2, Hep G2; cited from earlier work
[2] = test system: hepatocellular carcinoma and moderate hepatic dysfunction; design: method as in PMID 33430312; settings: cited from earlier work
[3] = test system: PC3 prostate cancer cell line; assay: Sulforhodamine B (SRB) cell growth inhibition assay; settings: for GI50 / IC100 / CC50: Homo sapiens, 48 h; for IC100: read-out: TGI (μM); for TGI: PC3, 48 h, concentration to inhibit 100% of cell growth, mean ± SD; for CC50: read-out: LC50 (μM)
human A3AR [4] = molecular target: T1, human A3AR (Homo sapiens, UniProt P0DMS8); assay: GloSensor cAMP accumulation assay (agonism/antagonism) at A3AR in CHO cells; format: cell-based; design: expressed in transfected cells; host or cells: CHO cells stably expressing A3AR and the GloSensor biosensor plasmid
T1 sequence (P0DMS8 1-318): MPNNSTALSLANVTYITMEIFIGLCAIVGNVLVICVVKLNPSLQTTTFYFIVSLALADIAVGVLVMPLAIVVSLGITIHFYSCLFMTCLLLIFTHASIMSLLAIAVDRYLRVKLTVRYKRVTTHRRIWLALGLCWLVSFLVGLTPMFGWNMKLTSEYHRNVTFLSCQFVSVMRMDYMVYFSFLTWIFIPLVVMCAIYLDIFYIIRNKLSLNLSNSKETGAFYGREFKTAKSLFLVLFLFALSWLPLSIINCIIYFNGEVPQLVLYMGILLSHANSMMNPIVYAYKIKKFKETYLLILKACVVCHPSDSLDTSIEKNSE
Description: CHO cells stable expressing A2B or A3ARs and the plasmid encoding the biosensor were used to study functional agonism and antagonism of understudy ligands. The desired cell number was incubated in equilibration medium containing a 3% v/v GloSensor cAMP reagent stock solution, 10% FBS and 87% of CO2 independent media. After 2 h of incubation, cells were dispensed in wells of 384 well plate and when a steady-state basal signal was obtained the agonism profile was studied, adding to wells the reference agonist NECA or compounds at different concentrations. In the case of the Gi coupled receptor A3AR Forskolin (FSK) 10 μM was added 10 min after the agonists and various luminescence readings were performed at different incubation times.
The antagonist profile of the compounds was evaluated by assessing their ability to counteract an agonist-induced increase or decrease (A2B and A3ARs, respectively) of cAMP accumulation. The cells were incubated with different antagonist concentrations and then treated with a fixed dose of NECA (10 μM for A2BAR and 1 μM for A3AR). FSK 10 μM was added 10 min after the agonists and various luminescence reads were performed at different incubation times.
Responses were expressed as percentage of the maximal relative luminescence units (RLU) and concentration–response curves were fitted by a nonlinear regression with the Prism program (GraphPAD Software, San Diego, CA, USA). The agonist or antagonist profile of compounds was expressed as EC50 or IC50, respectively. Each concentration was tested three–five times in duplicate and the values are given as the mean ± S.E.

human recombinant A2AAR [5] = molecular target: T2, human recombinant A2AAR (Homo sapiens, UniProt P29274); settings: [3H]NECA, CHO membranes; read-out: hA2AR (Ki nM); cited from earlier work
T2 sequence (P29274 whole entry): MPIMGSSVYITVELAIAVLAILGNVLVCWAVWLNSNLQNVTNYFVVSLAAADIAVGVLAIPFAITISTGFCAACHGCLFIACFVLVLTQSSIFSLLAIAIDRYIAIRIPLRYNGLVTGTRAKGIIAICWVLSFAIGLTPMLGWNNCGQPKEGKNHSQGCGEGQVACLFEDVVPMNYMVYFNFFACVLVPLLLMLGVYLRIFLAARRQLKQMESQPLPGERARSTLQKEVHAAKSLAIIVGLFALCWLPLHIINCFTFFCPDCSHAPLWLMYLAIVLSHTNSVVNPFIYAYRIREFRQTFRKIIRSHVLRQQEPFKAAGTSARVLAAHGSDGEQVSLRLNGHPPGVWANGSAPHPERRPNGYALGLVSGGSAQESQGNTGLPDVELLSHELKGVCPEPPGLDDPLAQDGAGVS

human recombinant A1AR [6] = molecular target: T3, human recombinant A1AR (Homo sapiens, UniProt P30542); settings: [3H]CCPA, CHO membranes; read-out: hA1R (Ki nM); cited from earlier work
T3 sequence (P30542 1-326): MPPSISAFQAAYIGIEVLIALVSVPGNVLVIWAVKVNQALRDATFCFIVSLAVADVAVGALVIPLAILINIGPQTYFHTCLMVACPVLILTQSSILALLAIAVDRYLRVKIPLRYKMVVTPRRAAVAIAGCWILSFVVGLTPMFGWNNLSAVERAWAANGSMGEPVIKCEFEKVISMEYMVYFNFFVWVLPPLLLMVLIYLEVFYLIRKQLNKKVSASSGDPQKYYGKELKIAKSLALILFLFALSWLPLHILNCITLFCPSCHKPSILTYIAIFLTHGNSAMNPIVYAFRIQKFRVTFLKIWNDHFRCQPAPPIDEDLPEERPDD

human A3AR [7] = molecular target: T1, human A3AR; settings: cited from earlier work
human A3AR [8] = molecular target: T1, human A3AR; assay: Radioligand binding assay, displacement of [3H]HEMADO in CHO cell membranes; settings: for A1/A3: A3AR selectivity vs A1AR; for A1/A3 / A2A/A3: ratio of Ki values; for A2A/A3: A3AR selectivity vs A2AAR; for Ki: [3H]HEMADO, CHO membranes, mean ± S.E., n = 3-5, read-out: hA3R (Ki nM)
Description: In the case of A2BAR, the potency of selected compounds was determined through a functional GloSensor cAMP assay.
(§1) All pharmacological methods followed the procedures as described earlier. In brief, membranes for radioligand binding were prepared from CHO cells stably transfected with human adenosine receptor subtypes through two centrifugations at different speeds. The first low-speed (1000 g) centrifugation allowed the removing of cell fragments and nuclei, while the second, performed at high speed (100,000 g), allowed the precipitation of the crude membrane fractions.
(§2) The binding affinity of the novel compounds was evaluated using radioligand competition experiments in CHO cells stably expressing hA1AR, hA2AAR, and hA3AR subtypes. […] Results were expressed as Ki values (dissociation constants), which were calculated with the program GraphPad (GraphPAD Software, San Diego, CA, USA). Each concentration was tested three–five times in duplicate and the values are given as the mean ± standard error (S.E.).

human recombinant A1AR [9] = molecular target: T3, human recombinant A1AR; assay: Radioligand binding assay, displacement of [3H]CCPA in CHO cell membranes; settings: mean ± S.E., n = 3-5, read-out: hA1R (Ki nM)
Description: (§3) [^3H]CCPA (2-chloro-N^6-cyclopentylAdo), [^3H]NECA (5′-N-ethylcarboxamidoAdo), and [^3H]HEMADO (2-hexynyl-N^6-methylAdo) were used as respective radioligands. The results are reported as Ki values in nM (± standard errors) (Table 1). In the case of A2BAR, the potency of selected compounds was determined through a functional GloSensor cAMP assay.
as §1, §2

human recombinant A2AAR [10] = molecular target: T2, human recombinant A2AAR; assay: Radioligand binding assay, displacement of [3H]NECA in CHO cell membranes; settings: mean ± S.E., n = 3-5, read-out: hA2AR (Ki nM)
Description: as §3, §1, §2

[11] = A3AR affinity repeated in Table 2, read-out: A3AR
[12] = [3H]HEMADO, CHO membranes, read-out: hA3R (Ki nM)

Structure (SMILES) | anticancer effect (cell growth inhibition) [1] | primary end-point of phase II trial [2] | safety profile in phase II trial [2] | GI50 [3] | IC100 [3] | TGI [3] | IC50 (human A3AR [4]; antagonism: counteracting agonist (NECA 1 μM) induced decrease of cAMP, forskolin 10 μM, mean ± S.E.) | functional behaviour at A3AR (agonist/antagonist) (human A3AR [4]; forskolin 10 µM stimulated cAMP, compared to Cl-IB-MECA) | Ki (human recombinant A2AAR [5]) | Ki (human recombinant A1AR [6]) | Ki (human A3AR [7]; [11]) | Ki (human A3AR [7]; [12]) | A1/A3 (human A3AR [8]) | A2A/A3 (human A3AR [8]) | CC50 [3] | Ki (human recombinant A1AR [9]) | Ki (human recombinant A2AAR [10]) | Ki (human A3AR [8])
CNC(=O)[C@H]1O[C@@H](n2cnc3c(NCc4cccc(I)c4)nc(Cl)nc32)[C@H](O)[C@@H]1O [Cl-IB-MECA, 2-chloro-N^6-(3-iodobenzyl)adenosine-5′-N-methyluronamide, reference compound] | good anticancer effect | did not meet its primary end-point | favorable safety profile | 18000 ± 400 nM | 44 µM | 44000 ± 3300 nM |  |  |  |  |  |  |  |  |  |  |  | 
CCCCC#Cc1nc(NCC(c2ccccc2)c2ccccc2)c2ncn([C@@H]3O[C@H](CO)[C@@H](O)[C@H]3O)c2n1 [Compound 4, 2-Hexynyl-N^6-(2,2-diphenylethyl)adenosine] | very good antitumor activity |  |  | 16000 ± 500 nM | 35 µM | 35000 ± 1500 nM | 380 ± 80 nM | antagonists | 153 nM | 984 nM | 27 nM | 27 nM | 36 fold | 6 fold | 80 ± 9.8 µM |  |  | 
OC[C@H]1O[C@@H](n2cnc3c(NCCc4ccccc4)nc(NCCc4ccccc4)nc32)[C@H](O)[C@@H]1O [Compound 5, 2-Phenylethylamino-N^6-(2-phenylethyl)adenosine] | very good antitumor activity |  |  | 237000 ± 9400 nM | > 500 µM | >500000 nM |  |  | 1370 nM | 357 nM | 0.33 nM | 0.33 nM | 1082 fold | 4145 fold | > 500 µM |  |  | 
OC[C@H]1O[C@@H](n2cnc3c(NCCc4ccccc4)nc(I)nc32)[C@H](O)[C@@H]1O [Compound 8, 2-Iodo-N^6-(2-phenylethyl)adenosine] |  |  |  | 42000 ± 2700 nM | 113 µM | 113000 ± 6700 nM |  |  |  |  |  |  | 29 fold | 824 fold | 301 ± 13.4 µM | 144 ± 32 nM | 4120 ± 998 nM | 5 ± 1.2 nM
OC[C@H]1O[C@@H](n2cnc3c(NCC(c4ccccc4)c4ccccc4)nc(I)nc32)[C@H](O)[C@@H]1O [Compound 9, 2-Iodo-N^6-(2,2-diphenylethyl)adenosine] |  |  |  | 24000 ± 1200 nM | 48 µM | 48000 ± 3500 nM |  |  |  |  |  |  | 17 fold | 113 fold | 94 ± 3.5 µM | 182 ± 25.4 nM | 1240 ± 253 nM | 11 ± 1.8 nM
